Experiment [1] concerns the target Vascular endothelial growth factor receptor 2 (Homo sapiens, UniProt P35968). Description: Inhibition of KDR.
Experiment [2] addresses Serine/threonine-protein kinase pim-1 (Homo sapiens, UniProt P11309). The experiment in a line: Inhibition of Pim1.
In experiment [3] the target is Rho-associated protein kinase 2 (Homo sapiens, UniProt O75116). Description: Inhibition of Rock2.
Experiment [4] has as its target Glycogen synthase kinase-3 beta (Homo sapiens, UniProt P49841). The experiment in a line: Inhibition of GSK3-beta.
Experiment [5] addresses Serine/threonine-protein kinase PAK 4 (Homo sapiens, UniProt O96013). Description: Inhibition of Pak4.
For experiment [6], the target named is Epidermal growth factor receptor (Homo sapiens, UniProt P00533). Description: Inhibition of EGFR.
Chain of Epidermal growth factor receptor (P00533 whole entry): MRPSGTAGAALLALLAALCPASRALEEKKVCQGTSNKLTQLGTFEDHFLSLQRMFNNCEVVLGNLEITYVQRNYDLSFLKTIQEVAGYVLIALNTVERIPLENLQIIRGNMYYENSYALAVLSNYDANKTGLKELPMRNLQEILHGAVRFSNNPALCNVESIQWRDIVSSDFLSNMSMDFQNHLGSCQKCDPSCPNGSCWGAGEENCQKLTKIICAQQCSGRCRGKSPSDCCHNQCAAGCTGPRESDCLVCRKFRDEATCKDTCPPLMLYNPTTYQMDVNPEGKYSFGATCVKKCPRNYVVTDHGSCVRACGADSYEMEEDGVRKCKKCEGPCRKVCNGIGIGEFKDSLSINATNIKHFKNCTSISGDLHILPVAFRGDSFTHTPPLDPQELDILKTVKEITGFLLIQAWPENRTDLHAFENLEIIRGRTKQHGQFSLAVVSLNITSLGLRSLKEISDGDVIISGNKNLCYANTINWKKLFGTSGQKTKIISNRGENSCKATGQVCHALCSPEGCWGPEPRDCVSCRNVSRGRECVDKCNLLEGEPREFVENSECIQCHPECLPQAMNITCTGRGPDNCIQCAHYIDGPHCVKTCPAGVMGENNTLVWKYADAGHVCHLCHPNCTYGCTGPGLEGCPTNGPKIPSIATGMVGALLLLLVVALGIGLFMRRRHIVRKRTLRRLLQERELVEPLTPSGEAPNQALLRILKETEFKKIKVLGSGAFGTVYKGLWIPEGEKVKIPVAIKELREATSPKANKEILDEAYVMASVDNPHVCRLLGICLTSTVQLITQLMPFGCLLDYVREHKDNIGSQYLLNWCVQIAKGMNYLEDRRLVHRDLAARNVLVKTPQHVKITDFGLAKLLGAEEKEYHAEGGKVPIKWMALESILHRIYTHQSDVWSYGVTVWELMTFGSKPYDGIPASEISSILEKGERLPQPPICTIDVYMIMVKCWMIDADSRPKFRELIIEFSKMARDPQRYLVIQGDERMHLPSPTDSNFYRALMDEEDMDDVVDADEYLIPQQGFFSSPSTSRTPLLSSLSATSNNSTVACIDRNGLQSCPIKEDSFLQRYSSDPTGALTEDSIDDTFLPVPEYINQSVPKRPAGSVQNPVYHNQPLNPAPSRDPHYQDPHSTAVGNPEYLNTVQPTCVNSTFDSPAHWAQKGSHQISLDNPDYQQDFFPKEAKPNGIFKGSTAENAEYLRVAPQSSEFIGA
Experiment [7] concerns the target Tyrosine-protein kinase JAK2 (Homo sapiens, UniProt O60674). Description: Inhibition of JAK2.

Chain of Rho-associated protein kinase 2 (O75116 whole entry): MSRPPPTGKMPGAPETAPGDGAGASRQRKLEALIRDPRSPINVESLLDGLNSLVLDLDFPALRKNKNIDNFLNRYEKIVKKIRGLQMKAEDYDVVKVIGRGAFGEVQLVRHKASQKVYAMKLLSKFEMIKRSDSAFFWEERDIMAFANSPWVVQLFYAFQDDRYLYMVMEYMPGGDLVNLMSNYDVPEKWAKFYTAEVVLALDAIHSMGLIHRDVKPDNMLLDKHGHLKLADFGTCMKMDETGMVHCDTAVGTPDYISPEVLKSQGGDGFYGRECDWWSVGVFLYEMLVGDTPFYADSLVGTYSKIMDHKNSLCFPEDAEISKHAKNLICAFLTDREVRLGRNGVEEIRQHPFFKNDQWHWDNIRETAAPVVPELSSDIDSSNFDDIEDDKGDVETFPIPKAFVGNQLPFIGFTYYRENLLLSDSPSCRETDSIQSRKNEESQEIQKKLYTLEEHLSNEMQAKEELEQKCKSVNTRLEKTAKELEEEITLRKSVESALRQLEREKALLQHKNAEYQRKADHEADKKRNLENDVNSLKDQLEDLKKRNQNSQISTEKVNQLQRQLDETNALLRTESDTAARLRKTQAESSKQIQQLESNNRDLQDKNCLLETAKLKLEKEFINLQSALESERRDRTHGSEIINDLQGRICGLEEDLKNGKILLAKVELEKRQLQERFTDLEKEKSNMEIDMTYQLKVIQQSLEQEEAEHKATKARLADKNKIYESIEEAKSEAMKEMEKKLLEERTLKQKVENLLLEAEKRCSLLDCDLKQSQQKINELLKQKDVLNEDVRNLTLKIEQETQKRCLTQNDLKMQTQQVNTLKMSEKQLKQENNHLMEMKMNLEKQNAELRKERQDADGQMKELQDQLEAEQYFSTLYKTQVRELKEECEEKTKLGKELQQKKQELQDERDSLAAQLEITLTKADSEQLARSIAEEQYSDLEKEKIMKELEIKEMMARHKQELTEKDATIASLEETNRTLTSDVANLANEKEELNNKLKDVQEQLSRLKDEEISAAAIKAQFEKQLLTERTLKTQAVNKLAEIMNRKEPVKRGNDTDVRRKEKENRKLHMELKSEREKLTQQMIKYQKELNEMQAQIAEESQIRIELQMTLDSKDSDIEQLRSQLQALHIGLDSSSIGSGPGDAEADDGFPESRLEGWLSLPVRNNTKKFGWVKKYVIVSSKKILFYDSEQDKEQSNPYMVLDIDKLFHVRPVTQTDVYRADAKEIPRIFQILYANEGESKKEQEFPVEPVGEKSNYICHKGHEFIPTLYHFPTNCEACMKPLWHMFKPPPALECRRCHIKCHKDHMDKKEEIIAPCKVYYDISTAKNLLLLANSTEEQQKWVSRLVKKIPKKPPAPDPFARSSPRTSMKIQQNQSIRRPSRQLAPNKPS
Chain of Glycogen synthase kinase-3 beta (P49841 whole entry): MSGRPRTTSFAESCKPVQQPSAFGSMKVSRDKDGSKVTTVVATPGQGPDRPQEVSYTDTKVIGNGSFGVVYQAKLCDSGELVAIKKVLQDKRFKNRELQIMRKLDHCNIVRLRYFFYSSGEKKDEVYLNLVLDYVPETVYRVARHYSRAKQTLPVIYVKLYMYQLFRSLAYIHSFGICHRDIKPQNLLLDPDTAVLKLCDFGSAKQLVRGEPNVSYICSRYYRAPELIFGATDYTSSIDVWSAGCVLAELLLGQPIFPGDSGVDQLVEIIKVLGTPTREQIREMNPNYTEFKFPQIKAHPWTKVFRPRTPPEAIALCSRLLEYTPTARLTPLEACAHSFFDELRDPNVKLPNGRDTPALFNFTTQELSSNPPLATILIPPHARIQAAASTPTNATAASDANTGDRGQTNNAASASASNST
Chain of Tyrosine-protein kinase JAK2 (O60674 whole entry): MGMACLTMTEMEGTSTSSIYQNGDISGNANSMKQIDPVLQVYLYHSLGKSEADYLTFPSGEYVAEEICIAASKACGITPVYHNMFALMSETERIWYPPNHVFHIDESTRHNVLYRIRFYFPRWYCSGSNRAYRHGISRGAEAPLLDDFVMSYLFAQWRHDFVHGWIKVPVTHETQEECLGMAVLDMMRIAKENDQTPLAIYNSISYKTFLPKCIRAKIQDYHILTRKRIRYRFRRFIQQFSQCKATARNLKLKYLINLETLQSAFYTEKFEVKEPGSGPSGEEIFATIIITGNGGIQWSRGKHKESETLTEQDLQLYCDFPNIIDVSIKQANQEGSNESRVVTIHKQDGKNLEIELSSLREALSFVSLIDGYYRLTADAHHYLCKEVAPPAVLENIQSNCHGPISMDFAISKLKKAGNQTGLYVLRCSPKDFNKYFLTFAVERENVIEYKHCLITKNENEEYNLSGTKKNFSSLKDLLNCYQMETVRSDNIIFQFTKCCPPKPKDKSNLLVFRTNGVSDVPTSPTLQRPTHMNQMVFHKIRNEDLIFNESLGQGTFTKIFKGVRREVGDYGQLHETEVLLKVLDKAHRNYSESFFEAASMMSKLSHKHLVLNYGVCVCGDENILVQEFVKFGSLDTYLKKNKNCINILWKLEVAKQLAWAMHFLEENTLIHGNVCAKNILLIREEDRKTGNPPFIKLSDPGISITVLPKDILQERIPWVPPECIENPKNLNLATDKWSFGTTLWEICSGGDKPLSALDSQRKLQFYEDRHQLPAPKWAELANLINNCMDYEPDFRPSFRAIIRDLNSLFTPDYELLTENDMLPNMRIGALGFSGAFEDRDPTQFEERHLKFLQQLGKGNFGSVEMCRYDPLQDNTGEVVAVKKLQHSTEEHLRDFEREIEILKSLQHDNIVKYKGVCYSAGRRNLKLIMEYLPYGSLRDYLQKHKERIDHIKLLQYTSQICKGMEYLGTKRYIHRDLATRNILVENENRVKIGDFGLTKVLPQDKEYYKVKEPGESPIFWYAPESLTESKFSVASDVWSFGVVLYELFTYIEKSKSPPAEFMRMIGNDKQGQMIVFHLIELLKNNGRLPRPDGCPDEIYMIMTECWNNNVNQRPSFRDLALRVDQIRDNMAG
Chain of Serine/threonine-protein kinase pim-1 (P11309 whole entry): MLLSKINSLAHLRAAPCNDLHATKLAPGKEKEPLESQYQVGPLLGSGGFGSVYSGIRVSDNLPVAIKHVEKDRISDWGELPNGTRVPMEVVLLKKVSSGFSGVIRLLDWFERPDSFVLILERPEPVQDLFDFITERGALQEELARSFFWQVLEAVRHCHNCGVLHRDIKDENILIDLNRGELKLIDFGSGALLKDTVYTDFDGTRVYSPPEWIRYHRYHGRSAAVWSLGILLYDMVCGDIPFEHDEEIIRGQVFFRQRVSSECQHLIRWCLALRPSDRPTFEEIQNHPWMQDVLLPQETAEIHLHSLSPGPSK
Chain of Serine/threonine-protein kinase PAK 4 (O96013 whole entry): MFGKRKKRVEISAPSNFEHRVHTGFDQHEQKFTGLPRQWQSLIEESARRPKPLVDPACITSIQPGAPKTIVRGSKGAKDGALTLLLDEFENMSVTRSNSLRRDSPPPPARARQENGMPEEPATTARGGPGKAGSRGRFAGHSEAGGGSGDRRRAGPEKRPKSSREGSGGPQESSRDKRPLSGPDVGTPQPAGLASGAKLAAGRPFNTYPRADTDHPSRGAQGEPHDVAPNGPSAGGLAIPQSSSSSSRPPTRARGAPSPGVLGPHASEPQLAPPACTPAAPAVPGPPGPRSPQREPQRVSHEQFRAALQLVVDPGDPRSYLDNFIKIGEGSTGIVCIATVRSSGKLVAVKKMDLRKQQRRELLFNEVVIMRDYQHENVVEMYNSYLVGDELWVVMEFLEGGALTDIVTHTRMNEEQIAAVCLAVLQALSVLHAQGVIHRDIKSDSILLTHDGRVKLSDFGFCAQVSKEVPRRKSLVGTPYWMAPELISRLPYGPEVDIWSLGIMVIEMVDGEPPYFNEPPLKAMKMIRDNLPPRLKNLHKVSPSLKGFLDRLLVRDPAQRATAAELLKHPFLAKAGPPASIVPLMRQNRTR

As to `Cc1nc(-c2ccc3[nH]ncc3c2)cs1`, the Ki is above 8880 nM in experiment [1]; 4160 nM in experiment [2]; 513 nM in experiment [3]; 2860 nM in experiment [4]; above 3750 nM in experiment [5].
For `c1ccc(CCNc2nc(-c3ccc4[nH]ncc4c3)cs2)cc1`, the Ki in experiment [1] was above 8880 nM; in experiment [2] it was above 8750 nM; in experiment [3], 364 nM; in experiment [4] it was above 5450 nM; in experiment [5], above 3750 nM.
`c1ccc(-c2c(-c3ccc4[nH]ncc4c3)nc3ncccn23)cc1`: the Ki in experiment [1] was above 8880 nM; in experiment [2], 339 nM; in experiment [3] it was 6 nM; in experiment [4], 10 nM; in experiment [5], above 3750 nM.
Turning to `CN(C)CCn1cnc(-c2ccc(F)cc2)c1-c1ccc2[nH]ncc2c1`, the Ki in experiment [6] is 67 nM; in experiment [1], above 8880 nM; in experiment [2], above 8750 nM; in experiment [3], above 6000 nM; in experiment [4] it was above 5450 nM; in experiment [7], above 1450 nM. Moreover, the Ki in experiment [5] was above 3750 nM.
On to `Nc1nc(-c2ccc3[nH]ncc3c2)cs1`, for which the Ki in experiment [1] is above 8880 nM; in experiment [2], 2900 nM; in experiment [3] it was 909 nM; in experiment [4], 4470 nM; in experiment [5], above 3750 nM.
As for `c1ccn2c(NC3CCCCC3)c(-c3ccc4[nH]ncc4c3)nc2c1`, the figures for the Ki in experiment [2], in experiment [3] and in experiment [4] were 2310 nM, 2480 nM and 2610 nM, respectively.
Regarding `CCNc1nc(-c2ccc3[nH]ncc3c2)cs1`, the inhibitory constant (Ki) in experiment [1] is above 8880 nM; in experiment [2], 1950 nM; in experiment [3] it was 888 nM; in experiment [4] it was 3930 nM; in experiment [5], above 3750 nM.
The like results for `c1ccc(CNc2nc(-c3ccc4[nH]ncc4c3)c(-c3ccccc3)s2)cc1` were, in that order, above 8880 nM, above 8750 nM, 822 nM, 3400 nM and above 3750 nM.
Regarding `c1cn2c(NC3CCCCC3)c(-c3ccc4[nH]ncc4c3)nc2s1`, the Ki in experiment [1] was found to be 5340 nM; in experiment [2], 1290 nM; in experiment [3] it was 622 nM; in experiment [4] it was 642 nM.
For the compound `CCCCNc1c(-c2ccc3[nH]ncc3c2)nc2ncccn12`, the Ki in experiment [1] is above 8880 nM; in experiment [2] it was 114 nM; in experiment [3] it was 116 nM; in experiment [4], 19 nM; in experiment [5] it was above 3750 nM.
Consider `Fc1ccc(-c2ncn(C3CCN(Cc4ccccc4)C3)c2-c2ccc3[nH]ncc3c2)cc1` (centres undefined), for which the Ki in experiment [6] was 8 nM; in experiment [1], above 8880 nM; in experiment [2] it was above 8750 nM; in experiment [3], above 6000 nM; in experiment [4], above 5450 nM; in experiment [7], above 1450 nM. In experiment [5], this compound had a Ki above 3750 nM.
In experiment [2], `c1cn2c(NC3CCCCC3)c(-c3ccc4[nH]ncc4c3)nc2cn1` registered a Ki of 1850 nM.
In the case of `Clc1ccc(Nc2c(-c3ccc4[nH]ncc4c3)nc3ncccn23)cc1`, the Ki in experiment [1] was above 8880 nM; in experiment [2], above 8750 nM; in experiment [3], 1560 nM; in experiment [4] it was 121 nM; in experiment [5] it was above 3750 nM.
On to `Fc1ccc(-c2ncn(CCCN3CCOCC3)c2-c2ccc3[nH]ncc3c2)cc1`, for which the inhibition constant Ki in experiment [6] is 27 nM; in experiment [1], above 8880 nM; in experiment [2], above 8750 nM; in experiment [3] it was above 6000 nM; in experiment [4], above 5450 nM; in experiment [7] it was above 1450 nM. In experiment [5], this compound registered a Ki above 3750 nM.
`c1ccc(Nc2nc(-c3ccc4[nH]ncc4c3)c(-c3ccccc3)s2)cc1`: the inhibition constant Ki in experiment [1] was above 8880 nM; in experiment [2], above 8750 nM; in experiment [3], 1410 nM; in experiment [4], above 5450 nM; in experiment [5], above 3750 nM.

A word on the Ki: it is a dissociation constant, usually derived from enzyme kinetics or from competition with a known ligand. Low readings indicate a stronger hold on the target, high ones a looser hold on the target.

These data come from ChEMBL document CHEMBL1681650, “Scaffold oriented synthesis. Part 4: design, synthesis and biological evaluation of novel 5-substituted indazoles as potent and selective kinase inhibitors employing heterocycle forming and multicomponent reactions” (Bioorg Med Chem Lett, 2011).
